SMILES strings stand for the structures.

The results in this text go back to patent US10316211B2, “Stabilizer and coating compositions thereof” (SWIMC LLC, priority 2012, dated 2019).

The subject of one experiment is MCF-7, clone WS8 cells. The experiment in a line: MCF-7 cell proliferation assay of estrogenic activity. Type of experiment: cell-based, human. Conditions: log10 of Relative Proliferative Effect (EC50 ratio versus 17-beta estradiol times 100); b102 calls the values expected or measured. From the text: The MCF-7 assay is a useful test for assessing whether a polyhydric phenol compound is appreciably non-estrogenic. The MCF-7 assay uses MCF-7, clone WS8 cells to measure whether and to what extent a substance induces cell proliferation via estrogen receptor (ER)-mediated pathways. The method is described in “Test Method Nomination: MCF-7 Cell Proliferation Assay of Estrogenic Activity” submitted for validation by CertiChem, Inc. to the National Toxicology Program Interagency Center for the Evaluation of Alternative Toxicological Methods (NICEATM) on Jan. 19, 2006 (available online at iccvam.niehs.nih.gov/methods/endocrine/endodocs/SubmDoc.pdf).
A brief summary of the method of the aforementioned MCF-7 assay is provided below. MCF-7, clone WS8 cells are maintained at 37° C. in RMPI (Roswell Park Memorial Institute medium) containing Phenol Red (e.g., GIBCO Catalog Number 11875119) and supplemented with the indicated additives for routine culture. An aliquot of cells maintained at 37° C. are grown for two days in phenol-free media containing 5% charcoal stripped fetal bovine serum in a 25 cm^2 tissue culture flask. Using a robotic dispenser such as an EPMOTION™ 5070 unit, MCF-7 cells are then seeded at 400 cells per well in 0.2 ml of hormone-free culture medium in Corning 96-well plates. The cells are adapted for 3 days in the hormone-free culture medium prior to adding the chemical to be assayed for estrogenic activity. The media containing the test chemical is replaced daily for 6 days. At the end of the 7 day exposure to the test chemical, the media is removed, the wells are washed once with 0.2 ml of HBSS (Hanks' Balanced Salt Solution), and then assayed to quantify amounts of DNA per well using a micro-plate modification of the Burton diphenylamine (DPA) assay, which is used to calculate the level of cell proliferation.
RPE is the ratio between the EC50 of the test chemical and the EC50 of the control substance 17-beta estradiol times 100, where EC50 is “effective concentration 50%” or half-maximum stimulation concentration for cell proliferation measured as total DNA in the MCF-7 assay.

The target of the next experiment is T1, human estrogen receptor (Homo sapiens, UniProt P03372).
T1 sequence (P03372 1-595): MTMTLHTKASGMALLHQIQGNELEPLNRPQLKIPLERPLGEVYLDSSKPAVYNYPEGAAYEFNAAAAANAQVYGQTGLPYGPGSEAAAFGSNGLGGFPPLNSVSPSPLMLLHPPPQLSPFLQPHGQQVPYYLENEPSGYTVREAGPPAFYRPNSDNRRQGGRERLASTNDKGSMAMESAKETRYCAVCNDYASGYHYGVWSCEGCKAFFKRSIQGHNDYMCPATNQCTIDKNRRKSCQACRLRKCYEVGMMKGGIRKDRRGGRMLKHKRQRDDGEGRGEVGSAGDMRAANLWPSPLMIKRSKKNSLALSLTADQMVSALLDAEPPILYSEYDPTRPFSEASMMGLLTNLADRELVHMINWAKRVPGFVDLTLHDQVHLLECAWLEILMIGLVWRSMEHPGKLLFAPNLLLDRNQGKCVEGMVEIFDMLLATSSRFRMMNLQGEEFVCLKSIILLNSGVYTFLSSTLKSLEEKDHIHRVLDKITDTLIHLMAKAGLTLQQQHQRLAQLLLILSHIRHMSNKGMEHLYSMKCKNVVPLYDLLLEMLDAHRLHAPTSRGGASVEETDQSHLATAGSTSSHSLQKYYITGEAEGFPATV
The experiment in a line: suitable in vitro assay whose results correlate with the MCF-7 assay (estrogenic activity). The conditions noted are these: in vitro assay correlated to MCF-7 assay through common reference compounds.

As for `Oc1ccccc1Cc1ccccc1O` [Structure 11], in the experiment with MCF-7, clone WS8 cells, the “Log RPE” value is “less than −4”.

As to `C[C@]12CC[C@@H]3c4ccc(O)cc4CC[C@H]3[C@@H]1CC[C@@H]2O` [17β-estradiol], in the experiment with MCF-7, clone WS8 cells, the “Log RPE” value is 2.00.

Consider `CC(C)(C)c1cc(O)c(C(C)(C)C)cc1O` [Structure 12], for which the “Log RPE” value with MCF-7, clone WS8 cells is on record as “less than −4”.

Take `Oc1ccc(Cc2ccc(O)cc2)cc1` [Bisphenol F]: in the experiment with MCF-7, clone WS8 cells, the “Log RPE” value was −2.

Consider `CC(C)(C)c1cc(Cc2cc(C(C)(C)C)c(O)c(C(C)(C)C)c2)cc(C(C)(C)C)c1O` [Structure 8, 4,4′-methylenebis(2,6-di-t-butylphenol)], for which the estrogenic activity result at human estrogen receptor was “do not exhibit appreciable estrogenic activity”.

For the compound `Cc1cc(Cc2cc(C)c(O)c(C)c2)cc(C)c1O` [Structure 6, 4,4′-methylenebis(2,6-dimethylphenol)], on human estrogen receptor, the estrogenic activity result was “do not exhibit appreciable estrogenic activity”.

`Cc1cc(Cc2cc(C)cc(C(C)(C)C)c2O)c(O)c(C(C)(C)C)c1` [Structure 9]: the estrogenic activity entry at human estrogen receptor was “do not exhibit appreciable estrogenic activity”.

Turning to `O=S(=O)(c1ccc(O)cc1)c1ccc(O)cc1` [Bisphenol S], the “Log RPE” value in the experiment on MCF-7, clone WS8 cells is given as −2.

Regarding `CC(C)(C)c1cc(O)c(C(C)(C)C)cc1O` [Structure 12, 2,5-di-t-butylhydroquinone], the estrogenic activity entry at human estrogen receptor is given as “do not exhibit appreciable estrogenic activity”.

`CCCC(c1cc(C(C)(C)C)c(O)cc1C)c1cc(C(C)(C)C)c(O)cc1C` [Structure 7, 4,4′-butylidenebis(2-t-butyl-5-methylphenol)]: the estrogenic activity result at human estrogen receptor is “do not exhibit appreciable estrogenic activity”.
